Source: US20250090573A1, “COMPOSITIONS FOR DELIVERING NITRIC OXIDE AND FLUORIDE AND METHODS FOR MAKING AND USING THE SAME” (University of Georgia Research Foundation, Inc., priority 2022, published 2025)

Assays:
[1] = GSNO/NO loading by chemiluminescence NO analyzer (Cu1+ depletion); assay type: physicochemical; conditions: hydrogel precursor sol, aqueous with cosolvent or surfactant or cyclodextrin; read-out: GSNO sol concentration after which solubility is incomplete
[2] = system: HGF; assay type: cell-based; conditions: human, 24 h
Description: (§1) The cell lines HGF and hFOB 1.19 were cultured for cytocompatibility assessments. HGF cells were cultured in fibroblast basal medium supplemented with the manufacturer's recommended growth kit (2% fetal bovine serum, 50 μg/mL ascorbic acid, 5 μg/mL rh insulin, […] hydrocortisone hemisuccinate, 5 ng/mL rh FGF b, and 7.5 mM L-glutamine) and penicillin-streptomycin (10 units/mL and 10 μg/mL, respectively). hFOB 1.19 cells were maintained in a 1:1 mixture of Ham's F12 Medium and Dulbecco's Modified Eagle's Medium supplemented with L-glutamine (2.5 mM), fetal bovine serum (10%) and G418 (0.3 mg/mL). Both cell types were incubated at 37° C. in a 5% CO2 humified atmosphere. Medium was replaced every 48 h and both cell lines were subcultured once monolayers were 80% confluent. Cells were detached from the flask surface via enzymatic treatment with 0.05% trypsin and 5 mM EDTA for 5 min, with isolation of cell pellets via centrifugation at 200 RCF for 5 min.
(§2) The cellular cytotoxicity of GSNO against HGF and hFOB 1.19 cells was tested over 24 h direct contact experiments. […] A separate set of wells containing only media and the dye (n=5) were also prepared to account for background readings. The absorbance of each well was measured at 450 nm, adjusted against the average absorbance reading of the wells with only media. […]

[3] = system: hFOB 1.19; experiment: Cellular cytotoxicity of GSNO and precursor sol materials (CCK-8); assay type: cell-based, human; conditions: hFOB 1.19 cells, direct contact exposure
Description: as §1, §2

solubility [1]: ≤ 30 mg/mL
SMILES: N[C@@H](CCC(=O)N[C@@H](CSN=O)C(=O)NCC(=O)O)C(=O)O [GSNO, S-Nitrosoglutathione]
GSNO treatment eliciting cytotoxic response [2]: greater than 100 μg/mL
GSNO treatment eliciting cytotoxic response [3]: ~400 µg/mL
